Measured values from patent US12398097B2, “WDR5-MYC inhibitors” (Vanderbilt University, priority 2019, dated 2025).

Biological target: WDR5 (Homo sapiens, UniProt P61964)
Test: Competition-based fluorescence polarization anisotropy assay
Conditions: binding to WDR5; displacement of FITC-labeled small molecule probe (analogous to Example J2 or HCH-25) or peptide probe FITC-AHx-SEEEIDVVSV; pH 6.0; Ki converted from IC50
Summary of the method: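 Ki values derive from displacement of either a fluorescent small-molecule probe or a FITC-peptide probe from WDR5, monitored by fluorescence polarization. Assay run at pH 6.0 in 200 mM phosphate with 300 mM NaCl, 0.5 mM TCEP and 0.1% Chaps.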

Compound: N#CC1(c2cc(NS(=O)(=O)c3cc(Br)cc(Cl)c3O)c(O)c(C(N)=O)c2)CCCCC1 [Example J235, 3-((5-Bromo-3-chloro-2-hydroxyphenyl)sulfonamido)-5-(1-cyanocyclohexyl)-2-hydroxybenzamide]
- Ki: 80 nM

Compound: CNC(=O)c1cc(C2(C#N)CCCCC2)cc(NS(=O)(=O)c2cc(Br)cc(Cl)c2O)c1O [Example J236, 3-((5-Bromo-3-chloro-2-hydroxyphenyl)sulfonamido)-5-(1-cyanocyclohexyl)-2-hydroxy-N-methylbenzamide]
- Ki: 240 nM

Compound: CS(=O)(=O)c1cc(Br)cc(NS(=O)(=O)c2cc(Br)cc(OC(F)(F)F)c2O)c1 [Example S3, 5-Bromo-N-(3-bromo-5-(methylsulfonyl)phenyl)-2-hydroxy-3-(trifluoromethoxy)benzenesulfonamide]
- Ki: 500 nM

Compound: CS(=O)(=O)c1cc(Cl)cc(NS(=O)(=O)c2cc(Br)cc(OC(F)(F)F)c2O)c1 [Example S4, 5-Bromo-N-(3-chloro-5-(methylsulfonyl)phenyl)-2-hydroxy-3-(trifluoromethoxy)benzenesulfonamide]
- Ki: 850 nM

Compound: CCc1cc(Br)cc(S(=O)(=O)Nc2cc(Cl)cc(S(C)(=O)=O)c2)c1O [Example S5, 5-Bromo-N-(3-chloro-5-(methylsulfonyl)phenyl)-3-ethyl-2-hydroxybenzenesulfonamide]
- Ki: 610 nM

Compound: CS(=O)(=O)c1cc(Cl)cc(NS(=O)(=O)c2cc(Br)ccc2O)c1 [Example S6, 5-Bromo-N-(3-chloro-5-(methylsulfonyl)phenyl)-2-hydroxybenzenesulfonamide]
- Ki: 1230 nM

Compound: CS(=O)(=O)c1cc(Cl)cc(NS(=O)(=O)c2cc(Br)cc(Cl)c2O)c1 [Example S8, 5-Bromo-3-chloro-N-(3-chloro-5-(methylsulfonyl)phenyl)-2-hydroxybenzenesulfonamide]
- Ki: 170 nM

Compound: CS(=O)(=O)c1cc(NS(=O)(=O)c2cc(Br)ccc2O)cc(C2CC2)c1 [Example S9, 5-Bromo-N-(3-cyclopropyl-5-(methylsulfonyl)phenyl)-2-hydroxybenzenesulfonamide]
- Ki: 1030 nM

Compound: CS(=O)(=O)c1cc(NS(=O)(=O)c2cc(Br)cc(Cl)c2O)cc(C2CC2)c1 [Example S10, 5-Bromo-3-chloro-N-(3-cyclopropyl-5-(methylsulfonyl)phenyl)-2-hydroxybenzenesulfonamide]
- Ki: 170 nM

Compound: CS(=O)(=O)c1cc(NS(=O)(=O)c2cc(Br)ccc2O)cc(OC(F)(F)F)c1 [Example S11, 5-Bromo-2-hydroxy-N-(3-(methylsulfonyl)-5-(trifluoromethoxy)phenyl)benzenesulfonamide]
- Ki: 820 nM

Compound: CS(=O)(=O)c1cc(NS(=O)(=O)c2cc(Br)cc(Cl)c2O)cc(OC(F)(F)F)c1 [Example S12, 5-Bromo-3-chloro-2-hydroxy-N-(3-(methylsulfonyl)-5-(trifluoromethoxy)phenyl)benzenesulfonamide]
- Ki: 70 nM

Compound: CS(=O)(=O)c1cc(NS(=O)(=O)c2cc(Br)ccc2O)cc(S(F)(F)(F)(F)F)c1 [Example S13, 5-Bromo-2-hydroxy-N-(3-(methylsulfonyl)-5-(pentafluoro-λ^6-sulfaneyl)phenyl)benzenesulfonamide]
- Ki: 420 nM

Compound: CS(=O)(=O)c1cc(NS(=O)(=O)c2cc(Br)cc(Cl)c2O)cc(S(F)(F)(F)(F)F)c1 [Example S14, 5-Bromo-3-chloro-2-hydroxy-N-(3-(methylsulfonyl)-5-(pentafluoro-λ^6-sulfaneyl)phenyl)benzenesulfonamide]
- Ki: 30 nM

Compound: O=S(=O)(Nc1cc(C2CC2)cc(S(=O)(=O)C2CCCO2)c1)c1cc(Br)ccc1O (stereo not shown) [Example S15-2]
- Ki: 8620 nM

Compound: O=S(=O)(Nc1cc(C2CC2)cc(S(=O)(=O)C2CCCO2)c1)c1cc(Br)cc(Cl)c1O (stereo not shown) [Example S16, 5-Bromo-3-chloro-N-(3-cyclopropyl-5-((tetrahydrofuran-2-yl)sulfonyl)phenyl)-2-hydroxybenzenesulfonamide]
- Ki: 200 nM

Compound: CS(=O)(=O)c1cc(Cl)cc(NS(=O)(=O)c2cc(Br)cc(Cl)c2O)c1O [Example S16-2, 5-Bromo-3-chloro-N-(5-chloro-2-hydroxy-3-(methylsulfonyl)phenyl)-2-hydroxybenzenesulfonamide]
- Ki: 20 nM

Compound: CS(=O)(=O)c1cc(Cl)cc(NS(=O)(=O)c2cc(Br)ccc2O)c1O [Example S17, 5-Bromo-N-(5-chloro-2-hydroxy-3-(methylsulfonyl)phenyl)-2-hydroxybenzenesulfonamide]
- Ki: 90 nM

Compound: CS(=O)(=O)c1cc(S(F)(F)(F)(F)F)cc(NS(=O)(=O)c2cc(Br)cc(Cl)c2O)c1O [Example S18, 5-Bromo-3-chloro-2-hydroxy-N-(2-hydroxy-3-(methylsulfonyl)-5-(pentafluoro-λ^6-sulfaneyl)phenyl)benzenesulfonamide]
- Ki: 30 nM

Compound: CS(=O)(=O)c1cc(S(F)(F)(F)(F)F)cc(NS(=O)(=O)c2cc(Br)ccc2O)c1O [Example S19, 5-Bromo-2-hydroxy-N-(2-hydroxy-3-(methylsulfonyl)-5-(pentafluoro-λ^6-sulfaneyl)phenyl)benzenesulfonamide]
- Ki: 100 nM

Compound: CS(=O)(=O)c1cc(S(F)(F)(F)(F)F)cc(NS(=O)(=O)c2ccc(Br)cc2O)c1O [Example S20, 4-Bromo-2-hydroxy-N-(2-hydroxy-3-(methylsulfonyl)-5-(pentafluoro-λ6-sulfaneyl)phenyl)benzenesulfonamide]
- Ki: 4300 nM

Compound: CCS(=O)(=O)c1cc(Cl)cc(NS(=O)(=O)c2cc(Br)cc(Cl)c2O)c1O [Example S21, 5-Bromo-3-Chloro-N-(5-chloro-3-(ethylsulfonyl)-2-hydroxyphenyl)-2-hydroxybenzenesulfonamide]
- Ki: 240 nM

Compound: CCS(=O)(=O)c1cc(Cl)cc(NS(=O)(=O)c2cc(Br)ccc2O)c1O [Example S22, 5-Bromo-N-(5-chloro-3-(ethylsulfonyl)-2-hydroxyphenyl)-2-hydroxybenzenesulfonamide]
- Ki: 250 nM

Compound: CC(C)S(=O)(=O)c1cc(Cl)cc(NS(=O)(=O)c2cc(Br)cc(Cl)c2O)c1O [Example S23.1, 5-Bromo-3-chloro-N-(5-chloro-2-hydroxy-3-(isopropylsulfonyl)phenyl)-2-hydroxybenzenesulfonamide]
- Ki: 130 nM

Compound: CC(C)[S+]([O-])c1cc(Cl)cc(NS(=O)(=O)c2cc(Br)cc(Cl)c2O)c1O (stereo not shown) [Example S23.2, 5-Bromo-3-chloro-N-(5-chloro-2-hydroxy-3-(isopropylsulfinyl)phenyl)-2-hydroxybenzenesulfonamide]
- Ki: 330 nM

Compound: CC(C)[S+]([O-])c1cc(Cl)cc(NS(=O)(=O)c2cc(Br)ccc2O)c1O (stereo not shown) [Example S23.3, 5-Bromo-N-(5-chloro-2-hydroxy-3-(isopropylsulfinyl)phenyl)-2-hydroxybenzenesulfonamide]
- Ki: 360 nM

Compound: CS(=O)(=O)c1cc(C(F)(F)F)cc(NS(=O)(=O)c2cc(Br)ccc2O)c1O [Example S25, 5-Bromo-3-2-hydroxy-N-(2-hydroxy-3-(methylsulfonyl)-5-(trifluoromethyl)phenyl)benzenesulfonamide]
- Ki: 90 nM

Compound: CS(=O)(=O)c1cc(C2CC2)cc(NS(=O)(=O)c2cc(Br)cc(Cl)c2O)c1O [Example S25-2, 5-Bromo-3-chloro-N-(5-cyclopropyl-2-hydroxy-3-(methylsulfonyl)phenyl)-2-hydroxybenzenesulfonamide]
- Ki: 100 nM

Compound: CS(=O)(=O)c1cc(C2CC2)cc(NS(=O)(=O)c2cc(Br)ccc2O)c1O [Example S26, 5-Bromo-N-(5-cyclopropyl-2-hydroxy-3-(methylsulfonyl)phenyl)-2-hydroxybenzenesulfonamide]
- Ki: 240 nM

Compound: NS(=O)(=O)c1cc(Cl)cc(NS(=O)(=O)c2cc(Br)cc(Cl)c2O)c1O [Example S27, 5-Bromo-3-chloro-N-(5-chloro-2-hydroxy-3-sulfamoylphenyl)-2-hydroxybenzenesulfonamide]
- Ki: 360 nM

Compound: CNS(=O)(=O)c1cc(Cl)cc(NS(=O)(=O)c2cc(Br)cc(Cl)c2O)c1O [Example S28, 5-bromo-3-chloro-N-(5-chloro-2-hydroxy-3-(N-methylsulfamoyl)phenyl)-2-hydroxybenzenesulfonamide]
- Ki: 20700 nM

Compound: CNS(=O)(=O)c1cc(Cl)cc(NS(=O)(=O)c2cc(Br)ccc2O)c1O [Example S29, 5-bromo-N-(5-chloro-2-hydroxy-3-(N-methylsulfamoyl)phenyl)-2-hydroxybenzenesulfonamide]
- Ki: 15500 nM

Compound: COCCNS(=O)(=O)c1cc(Cl)cc(NS(=O)(=O)c2cc(Br)cc(Cl)c2O)c1O [Example S30, 5-bromo-3-chloro-N-(5-chloro-2-hydroxy-3-(N-(2-methoxyethyl)sulfamoyl)phenyl)-2-hydroxybenzenesulfonamide]
- Ki: 3050 nM

Compound: COCCNS(=O)(=O)c1cc(Cl)cc(NS(=O)(=O)c2cc(Br)ccc2O)c1O [Example S31, 5-bromo-N-(5-chloro-2-hydroxy-3-(N-(2-methoxyethyl)sulfamoyl)phenyl)-2-hydroxybenzenesulfonamide]
- Ki: 650 nM

Compound: O=S(=O)(Nc1cc(Cl)cc(S(=O)(=O)NCC2CCCO2)c1O)c1cc(Br)cc(Cl)c1O (stereo not shown) [Example S32, 5-Bromo-3-chloro-N-(5-chloro-2-hydroxy-3-(N-((tetrahydrofuran-2-yl)methyl)sulfamoyl)phenyl)-2-hydroxybenzenesulfonamide]
- Ki: 440 nM

Compound: O=S(=O)(Nc1cc(Cl)cc(S(=O)(=O)NCC2CCCO2)c1O)c1cc(Br)ccc1O (stereo not shown) [Example S32-2, 5-Bromo-N-(5-chloro-2-hydroxy-3-(N-((tetrahydrofuran-2-yl)methyl)sulfamoyl)phenyl)-2-hydroxybenzenesulfonamide]
- Ki: 530 nM

Compound: CN1CCN(CCNS(=O)(=O)c2cc(Cl)cc(NS(=O)(=O)c3cc(Br)cc(Cl)c3O)c2O)CC1 [Example S33, 5-Bromo-3-chloro-N-(5-chloro-2-hydroxy-3-(N-(2-(4-methylpiperazin-1-yl)ethyl)sulfamoyl)phenyl)-2-hydroxybenzenesulfonamide]
- Ki: 730 nM

Compound: CCN(CC)CCSc1cc(Cl)cc(NS(=O)(=O)c2cc(Br)cc(Cl)c2O)c1 [Example S34, 5-Bromo-3-chloro-N-(3-chloro-5-((2-(diethylamino)ethyl)thio)phenyl)-2-hydroxybenzenesulfonamide]
- Ki: 510 nM
